Measured values taken from patent US4912092A, “Methods for increasing extracellular adenosine and for stabilizing mast cells” (The Regents of the University of California, priority 1987, dated 1990).
“Also recorded” adds a separate entry of the source.

Legend:
myocardial infarct = assay: Myocardial infarct size after tying off the left anterior descending coronary artery; assay type: in vivo, rat; details: bolus then osmotic mini-pump infusion, three weeks; p<0.05
From the text: The animals were continuously exposed by infusion of either AICA riboside in saline or saline using osmotic mini-pumps well known to those in the art. After three weeks, the rats were sacrificed and infarct size quantitated by planimarizing stained sections of fixed hearts.

[1] = dog, in vivo
Description: Thirteen mongrel dogs were anesthetized with phenobarbital. The anterior coronary vein was cannulated and a blood sample was collected into 2N perchloric acid. […] Regional myocardial blood flow was measured within 15 μm radiolabelled spheres infused into the left atzium at 5 and 60 minutes during the ischemic period, as described by Heymann et al. in Prog. […] The electrocardiogram and arterial pressure were monitored throughout the period of ischemia.

[2] = test system: Mouse bone marrow-derived mast cells; assay: Mast cell leukotriene C4 release (radioimmune assay); assay type: cell-based
Description: (§1) By preventing mast cell degranulation, it is possible to prevent or control a patient's allergic response. Bone marrow obtained from Balb/C mice femurs was cultured in a 1:1 mixture of Razin media and conditioned media, produced by co-culturing splenocytes from C57B1/6J and C3H mice in the presence of Concanavalin A as described by Razin et al. in the Proc. Natl. Acad. Sci. USA 28: 2559-2561, 1981. After weekly passaging and at least 15 days in tissue culture, the resulting cells were 90% pure mast cells and 95% viable as assessed by Trypan blue exclusion. Cells exposed to ribavirin in culture were washed three times prior to use in experiments. Parallel cultures of cells grown in media alone were used as controls for pharmacologically manipulated mast cells. Cell growth was assessed by counting cells at particular time points and comparing actual numbers of ribavirin-treated cells to numbers of cells grown in media alone.

[3] = test system: isuprel-induced arrhythmias; assay: Isoproterenol (isuprel)-induced arrhythmias; assay type: in vivo, rat; details: 1000 mg/kg intraperitoneally
Description: Five minutes later both animals were anesthetized with 330 mg/kg of chloral hydrate injected intraperitoneally. Then a single EKG lead was attached to each rat for simultaneous recording of the paired rats' electrocardiograms. To produce arrhythmia, each rat was injected subcutaneously with isuprel […].
Beginning 30 minutes after isuprel introduction, the electrocardiograph recording paper speed was run (5 cm/sec) for 10 minutes to count the arrhythmic beats of both animals.

[4] = test system: HPRT- neuroblastoma cells; assay: Adenosine excretion by ionophore-stimulated HPRT- neuroblastoma cells; assay type: cell-based; details: for Concentration of Adenosine: HPRT-, AICA riboside 50 μM
Description: (§2) The history and properties of the cell line have been described by Hershfield et al. in Science, Vol. 197, p. 1284, 1977.
(§3) Catabolism of cellular ATP stores was stimulated by adding either 2-deoxyglucose or a calcium ionophore. At various times, the amount of adenosine released by the cells into the supernatant, or the amount of nucleotides remaining in the cells, was determined by mixing 30 μl of chilled 4.4N perchloric acid with 300 μl of supernatants, or by adding 300 μl of chilled 0.4N perchloric acid to the cells collected as pellets and centrifuging the mixtures at 500×G for 10 minutes at 4° C. […] 1245, 1975. Following centrifugation at 1500×G for three minutes at 4° C., the aqueous phase is removed and frozen at -20° C. until assayed for adenosine, inosine, or for nucleotides. Adenosine was evaluated isocratically on a C-18 microBondapak reverse phase column equilibrated with 4 millimolar potassium phosphate, (pH 3.4):acetonitrile 60% in water (95:5 v/v) buffer. Adenosine elutes at 8-10 minutes, and its identity was confirmed by its sensitivity to adenosine deaminase and by spiking with adenosine standards. The extracted samples from the cell pellet were analyzed for nucleotides by high pressure liquid chromatography on a Whatman Partisil-10 (SAX) column equilibrated with 10 millimolar potassium phosphate, pH 3.78, and eluted with a linear gradient to a 0.25 molar potassium phosphate, 0.5 molar KCl, pH 3.45. […] Peaks were quantitated by comparison with high pressure liquid chromatography analysis of suitable standards.
(§4) To induce ATP catabolism, the growth medium was replaced by medium containing micromolar amounts of the calcium ionophore A23187 and 1.0 μM deoxycoformycin.

inosine = assay: Venous inosine levels during coronary artery occlusion in dogs; assay type: in vivo, dog; details: over the 60-minute assay period (FIG. 5)
Description: Thirteen mongrel dogs were anesthetized with phenobarbital. […] C.V. Dis. 20; 55 (1977). […] Two of the surviving saline-treated animals fibrillated. […] The range was 4.4 to 100 μM.
That the increase in the levels of adenosine is due, at least in part, to a reduction in the amount of ATP that is converted to inosine was shown by analysis of venous blood from dogs in Example III for inosine levels.

[5] = test system: HPRT+ neuroblastoma cells; assay: Adenosine excretion by ionophore-stimulated HPRT+ neuroblastoma cells; assay type: cell-based; details: for Concentration of Adenosine: HPRT+, AICA riboside 50 μM
Description: as §2, §3, §4

[6] = test system: pentylene tetrazol-induced seizures; assay: Pentylene tetrazol-induced seizures; assay type: in vivo, rat
[7] = test system: Mouse bone marrow-derived mast cells; assay type: cell-based; details: 100 micromolar, A23187 at 1 μg/ml; 28.8% in its absence
Description: as §1
β-hexosaminidase was chosen as a representative granule-associated, preformed mast cell mediator because it is easily quantitated, and its release nearly identically parallels that of histamine. Mouse bone marrow-derived mast cells were centrifuged at 200×g for 5 minutes, washed three times in Tyrode's buffer lacking divalent cations, sensitized for 30 minutes at 37° C. with anti-DNP ([…]) IgE (1 μg/10^6 cells) and challenged with either DNP-BSA antigen (175 ng/3×10^5 cells) or A23187 (10 μg/ml/3×10^5 cells) in 400 μl of complete Tyrode's buffer for 10 minutes at 37° C. Reaction mixtures were centrifuged at 200×g for 10 minutes, and supernatant and pellet β-hexosaminidase concentrations were assayed by the hydrolysis of p-nitrophenyl-β-D-glucosamide as described in Schwartz et al. in J. Immunol. […] Spontaneous β-hexosaminidase release was determined in unchallenged cells. The net % of β-hexosaminidase released is defined as follows: [formula] where [β-hex] is β-hexosaminidase and super. is supernatant. When exogenous adenosine was present in reaction mixtures, it was added simultaneously with the secretagogue.

[8] = test system: adenylosuccinase deficiency (autism); assay: Therapeutic trial in patients with adenylosuccinase deficiency (autism); assay type: in vivo, human
From the text: Following authorization, therapeutic trials with AICA riboside were started in two patients with adenylosuccinase deficiency (autism). […] On Day 55, both patients were briefly readmitted for clinical, biochemical and psychiatric evaluation. […] Treatment was maintained until Day 71, and arrested at that date.

[9] = dog, in vivo, iv
From the text: Thirteen mongrel dogs were anesthetized with phenobarbital. […] C.V. Dis. 20; 55 (1977).

[10] = after two months of continuous administration

## NC(=O)c1ncn([C@@H]2O[C@H](CO)[C@@H](O)[C@H]2O)c1N [AICA riboside, 5-amino-4-imidazolecarboxamide riboside]
Myocardial infarct
  reduction of infarct size compared to saline-treated controls: 33%
[1]
  arterial blood gas-content and systemic venous granulocyte counts versus saline: not significantly different
  systemic arterial pressure and heart rate versus saline: no significant differences
[2]; 100 μM for six days, A23187 challenge 20 minutes, control 51
  supernatant leukotriene C4 concentration: 13 nanograms/10^6 cells
[2]; Mus musculus, Mast cell, 100 μM pretreatment for six days, p<0.01, read-out: reduction of leukotriene C4 release
  inhibition at 100 µM: 75%
[3]
  reduction in paroxysmal ventricular contractions: 39%
  ventricular fibrillation: complete suppression
[4]; ionophore 0 μg/ml
  Concentration of Adenosine: < 0.01 µM
[4]; ionophore 10 μg/ml, control 0.124
  Concentration of Adenosine: 0.513 µM
[4]; pretreatment
  correction of the twofold lower adenosine secretion of HPRT-deficient cells: can be corrected by pretreatment
inosine
  inosine levels in venous blood versus saline: more than twofold decrease
[5]; 50 μM AICA riboside, A23187 and 1.0 μM deoxycoformycin
  adenosine secreted by treated cells versus control cells: at least twofold more adenosine than control cells
[5]; ionophore 0 μg/ml
  Concentration of Adenosine: < 0.01 µM
[5]; ionophore 10 μg/ml, control 0.329
  Concentration of Adenosine: 0.698 µM
[6]; 2000 mg/kg (total dose) intraperitoneal (FIG. 12)
  latency to seizure: dramatic prolongation
[6]; 2000 mg/kg (total dose) intraperitoneal, 60 mg/kg pentylene tetrazol
  reduction of animals having seizures: 40%
[7]
  hexosaminidase released: 17.6%
[8]; [10]
  autistic features, older patient: did not show any modification
  autistic features, younger sibling: clear-cut improvement
[8]; before and during the trial treatment
  haematology and clinical chemistry parameters: normal
[8]; during therapy
  parent's description of both patients: more pleasantly active and more easy to handle during therapy
[8]; oral 5 mg/kg/day up to 2×10 mg/kg/day
  clinical or biochemical side effects: no adverse effects; also recorded: No clinical or biochemical side effects were observed
[9]
  concentration: 27.2 µM
